Where “and” joins values, the source holds several entries; their conditions need not be identical. Identical values can stand only once. Like-named read-outs stand apart in the source and are kept apart here.
Assays:
[1] = molecular target: T1, mMC5R (Mus musculus, UniProt P41149); experiment: AlphaScreen cAMP agonist assay, HEK293 cells stably expressing mMC5R
[2] = molecular target: T2, mMC4R (Mus musculus, UniProt P56450); experiment: AlphaScreen cAMP agonist assay, HEK293 cells stably expressing mMC4R; conditions: for mMC4R percent maximal stimulatory response (compared to NDP-MSH): at 1 mM, not enough stimulation to determine EC50; for mMC4R partial agonist efficacy bin: sigmoidal curve, efficacy <90% of NDP-MSH
T2 sequence (P56450 whole entry): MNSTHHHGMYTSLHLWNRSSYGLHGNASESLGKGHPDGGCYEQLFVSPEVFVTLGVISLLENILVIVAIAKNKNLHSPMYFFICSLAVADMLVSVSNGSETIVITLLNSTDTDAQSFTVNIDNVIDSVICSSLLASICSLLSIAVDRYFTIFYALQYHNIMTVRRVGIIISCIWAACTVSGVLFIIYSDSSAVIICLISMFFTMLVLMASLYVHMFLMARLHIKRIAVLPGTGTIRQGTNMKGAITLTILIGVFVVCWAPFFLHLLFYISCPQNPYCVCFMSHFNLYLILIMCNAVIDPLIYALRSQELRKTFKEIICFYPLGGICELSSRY

[3] = molecular target: T2, mMC4R; conditions: antagonist, Schild analysis with agonist NDP-MSH; mean ± SEM
[4] = molecular target: T3, mMC1R (Mus musculus, UniProt Q01727); experiment: AlphaScreen cAMP agonist assay, HEK293 cells stably expressing mMC1R
T3 sequence (Q01727 whole entry): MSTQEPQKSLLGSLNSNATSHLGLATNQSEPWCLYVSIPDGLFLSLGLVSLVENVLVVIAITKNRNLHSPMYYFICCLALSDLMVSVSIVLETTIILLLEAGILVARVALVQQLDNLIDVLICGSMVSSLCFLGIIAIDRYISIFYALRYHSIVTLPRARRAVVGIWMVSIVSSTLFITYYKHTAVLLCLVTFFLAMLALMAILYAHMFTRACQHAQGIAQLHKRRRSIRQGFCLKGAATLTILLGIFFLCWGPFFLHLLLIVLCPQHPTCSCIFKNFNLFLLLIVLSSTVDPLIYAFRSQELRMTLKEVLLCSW

[5] = molecular target: T2, mMC4R; experiment: cell-based
[6] = molecular target: T4, mMC3R (Mus musculus, UniProt P33033); experiment: AlphaScreen cAMP agonist assay, HEK293 cells stably expressing mMC3R; conditions: for mMC3R agonist efficacy (in words): relative to NDP-MSH, full = >90% receptor activation
T4 sequence (P33033 whole entry): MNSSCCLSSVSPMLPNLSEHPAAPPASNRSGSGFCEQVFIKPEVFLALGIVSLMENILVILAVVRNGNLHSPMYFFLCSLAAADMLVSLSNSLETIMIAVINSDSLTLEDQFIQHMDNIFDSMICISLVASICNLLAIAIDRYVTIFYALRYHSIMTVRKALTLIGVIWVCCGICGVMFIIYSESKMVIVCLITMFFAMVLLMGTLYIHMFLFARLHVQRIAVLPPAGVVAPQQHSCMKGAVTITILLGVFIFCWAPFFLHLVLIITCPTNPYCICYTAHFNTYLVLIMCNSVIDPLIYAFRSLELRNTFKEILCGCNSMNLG

[7] = molecular target: T1, mMC5R; parameters: expressed in transfected cells; method as in PMID 33886285; conditions: β-galactosidase reporter gene assay; read-out: mMC5R agonist EC50 (previously reported); cited from earlier work
[8] = molecular target: T4, mMC3R; parameters: expressed in transfected cells; method as in PMID 33886285; conditions: β-galactosidase reporter gene assay; read-out: mMC3R agonist EC50 (previously reported); cited from earlier work
[9] = molecular target: T3, mMC1R; parameters: expressed in transfected cells; method as in PMID 33886285; conditions: cited from earlier work
[10] = molecular target: T2, mMC4R; parameters: expressed in transfected cells; method as in PMID 33886285; conditions: with agonist MTII; cited from earlier work
[11] = molecular target: T2, mMC4R; parameters: expressed in transfected cells; method as in PMID 33886285; conditions: cited from earlier work; for mMC4R partial stimulation, % activation (previously reported): at 10 µM
[12] = molecular target: mouse melanocortin-5 receptor (mouse) (UniProt P41149)
Sequence of mouse melanocortin-5 receptor (mouse) (P41149 whole entry): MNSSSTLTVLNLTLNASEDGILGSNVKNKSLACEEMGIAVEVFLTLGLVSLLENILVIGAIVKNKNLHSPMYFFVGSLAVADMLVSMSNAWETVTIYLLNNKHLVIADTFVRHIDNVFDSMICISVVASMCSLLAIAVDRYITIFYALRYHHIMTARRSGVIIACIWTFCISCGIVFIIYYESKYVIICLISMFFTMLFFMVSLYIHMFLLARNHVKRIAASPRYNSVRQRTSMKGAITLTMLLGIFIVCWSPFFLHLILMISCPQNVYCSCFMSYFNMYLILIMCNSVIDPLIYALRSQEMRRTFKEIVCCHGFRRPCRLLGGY

[13] = molecular target: mouse melanocortin-1 receptor (mouse) (UniProt Q01727)
Sequence of mouse melanocortin-1 receptor (mouse) (Q01727 whole entry): as the sequence (Q01727 whole entry) above

[14] = molecular target: mouse melanocortin-3 receptor (mouse) (UniProt P33033)
Sequence of mouse melanocortin-3 receptor (mouse) (P33033 whole entry): as the sequence (P33033 whole entry) above

[15] = system: MC5R; parameters: method as in PMID 21215742; conditions: read-out: MC5R antagonist IC50; cited from earlier work
[16] = system: MC1R; parameters: method as in PMID 21215742; conditions: read-out: MC1R antagonist IC50; cited from earlier work

T1 sequence (P41149 whole entry): as the sequence (P41149 whole entry) above

Row | EC50 [1] | mMC4R pA2 [3] | EC50 [4] | Kb [5] | EC50 [6] | mMC3R agonist efficacy (in words) [6] | EC50 [2] | mMC4R partial agonist efficacy bin [2] | Compound | other results
1 | 480 ± 50 nM | 6.3 | 390 ± 50 nM | 501 nM | 3000 ± 700 nM | full agonist efficacy | – | – | C[C@H](O)[C@@H]1CN([C@H](Cc2ccccc2)CN2CCC[C@H]2CN2CCNC2=N)C(=N)N1CC1CCC(C(C)(C)C)CC1 (some centres unmarked) [Compound 2718.024] | mMC4R percent maximal stimulatory response (compared to NDP-MSH) [2]: 50% @ 1 mM; fold decreased mMC3R agonist potency ([6]; relative to 2718.001): 11 fold and 10 fold
2 | 1300 ± 100 nM | 5.8 | 1100 ± 300 nM | 1580 nM | 3300 ± 100 nM | full agonist efficacy | 2900 ± 400 nM | B (B (51–90% receptor activation)) | CCC[C@@H]1CN([C@H](CC2CCCCC2)CN2CCC[C@H]2CN2CCNC2=N)C(=N)N1CC1CCC(C(C)(C)C)CC1 (some centres unmarked) [Compound 2718.029] | –
3 | 600 ± 100 nM | 6.1 | 510 ± 90 nM | 794 nM | 1000 ± 300 nM | full agonist efficacy | – | – | CC(C)C[C@@H]1CNC(=N)N1C[C@@H]1CCCN1C[C@@H](CC1CCCCC1)N1CCN(CC2CCC(C(C)(C)C)CC2)C1=N (some centres unmarked) [Compound 2718.025] | mMC4R percent maximal stimulatory response (compared to NDP-MSH) [2]: 60% @ 1 mM; fold decreased mMC3R agonist potency ([6]; relative to 2718.002): 4 fold
4 | 300 ± 10 nM | 6.2 | 460 ± 30 nM | 631 nM | 2600 ± 200 nM | full agonist efficacy | 1800 ± 500 nM | A (A (20–50% receptor activation)) | C[C@H](O)[C@@H]1CN([C@H](CC2CCCCC2)CN2CCC[C@H]2CN2CCNC2=N)C(=N)N1CC1CCC(C(C)(C)C)CC1 (some centres unmarked) [Compound 2718.026] | fold decreased mMC3R agonist potency ([6]; relative to 2718.002): 11 fold and 10 fold
5 | 2400 ± 300 nM | – | 1000 ± 300 nM | 1260 nM | 2400 ± 200 nM | full agonist efficacy | – | – | CCC[C@@H]1CN([C@H](CC2CCCCC2)CN2CCC[C@H]2CN2C(=N)NC[C@@H]2C(C)C)C(=N)N1CC1CCC(C(C)(C)C)CC1 (some centres unmarked) [Compound 2718.053] | mMC4R percent maximal stimulatory response (compared to NDP-MSH) [2]: 60% @ 1 mM

The remaining lines, values behind:

Row | Compound | EC50 [1] | mMC4R pA2 [3] | EC50 [4] | Kb [5] | EC50 [6] | mMC3R agonist efficacy (in words) [6] | EC50 [2] | mMC4R partial agonist efficacy bin [2] | other results
6 | CC(C)CC1CNC(=N)N1CC1CCCN1CC(Cc1ccccc1)N1CC(C(C)O)N(CC2CCC(C(C)(C)C)CC2)C1=N (centres unmarked) [Compound 2718.001] | 260 ± 30 nM | 6.0 | 320 ± 30 nM | 1000 nM | 270 ± 20 nM | – | – | – | EC50 [7]: 530 nM; EC50 [8]: 310 nM; mMC1R partial stimulation, % efficacy (previously reported) ([9]; at 10 µM): 58%; mMC4R antagonist pA2 (previously reported) [10]: 7.0; mMC4R partial stimulation, % activation (previously reported) [11]: 10–50%
7 | NDP-MSH (peptide) | – | – | – | – | – | – | – | – | EC50 of agonist activity, AlphaScreen cAMP assay, HEK293 cells stably expressing mMC5R [12]: 0.1 nM; EC50 of agonist activity, AlphaScreen cAMP assay, HEK293 cells stably expressing mMC1R [13]: 0.055 nM; EC50 of agonist activity, AlphaScreen cAMP assay, HEK293 cells stably expressing mMC3R [14]: 0.069 nM
8 | COc1ccccc1-c1nc(=Nc2ccccc2)sn1-c1ccccc1OC [JNJ-10229570] | – | – | – | – | – | – | – | – | IC50 [15]: 200 to 300 nM; IC50 [16]: 200 to 300 nM
9 | CC(C)C[C@@H]1CNC(=N)N1C[C@@H]1CCCN1C[C@@H](Cc1ccccc1)N1CCN(CC2CCC(C(C)(C)C)CC2)C1=N (some centres unmarked) [Compound 2718.022] | 320 ± 10 nM | 6.1 | 400 ± 40 nM | 794 nM | 380 ± 70 nM | full agonist efficacy | – | – | –
10 | CC(C)CC1CNC(=N)N1CC1CCCN1CC(CC1CCCCC1)N1CC(C(C)O)N(CC2CCC(C(C)(C)C)CC2)C1=N (centres unmarked) [Compound 2718.002] | 290 ± 10 nM | 6.2 | 270 ± 20 nM | 631 nM | 240 ± 8 nM | – | 1200 ± 300 nM | A (A (20–50% receptor activation)) | EC50 [7]: 140 nM; EC50 [8]: 210 nM; EC50 ([9]; β-galactosidase reporter gene assay, read-out: mMC1R agonist EC50 (previously reported)): 300 nM; mMC4R antagonist pA2 (previously reported) [10]: 5.8; EC50 ([11]; partial agonist, read-out: mMC4R partial agonist EC50 (previously reported)): 270 nM; mMC4R partial agonist efficacy, % MTII signal (previously reported) ([11]; relative to MTII): 45%
11 | CCCC1CN(C(CC2CCCCC2)CN2CCCC2CN2C(=N)NCC2C(C)C)C(=N)N1CC1CCC(C(C)(C)C)CC1 (centres unmarked) [Compound 2718.003] | 1200 ± 200 nM | 5.9 | 640 ± 30 nM | 1260 nM | 2000 ± 300 nM | – | 2500 ± 600 nM | A (A (20–50% receptor activation)) | EC50 [7]: 540 nM; EC50 [8]: 350 nM; mMC1R partial stimulation (previously reported) ([9]; at 100 µM): 50–90%; mMC4R antagonist pA2 (previously reported) [10]: 5.8; mMC4R partial stimulation, % activation (previously reported) [11]: 50%; fold decreased mMC3R potency between the previous reported values and the present study ([6]; AlphaScreen (present) vs previously reported value [29]): 6 fold

From article PMC10299128, “The Parallel Structure–Activity Relationship Screening of Three Compounds Identifies the Common Agonist Pharmacophore of Pyrrolidine Bis-Cyclic Guanidine Melanocortin-3 Receptor (MC3R) Small-Molecule Ligands” (International Journal of Molecular Sciences, 2023)
